Experiments:
Mu-type opioid receptor = Mu-type opioid receptor (Homo sapiens, UniProt P35372); test: biochemical; format: functional
Vasopressin V1a receptor = Vasopressin V1a receptor (Homo sapiens, UniProt P37288)
[1] = molecular target: Muscarinic acetylcholine receptor M3 (Homo sapiens, UniProt P20309)
Cannabinoid receptor 1 = Cannabinoid receptor 1 (Homo sapiens, UniProt P21554)
Progesterone receptor = molecular target: T1, Progesterone receptor (Homo sapiens, UniProt P06401); format: functional
T1 sequence (P06401 whole entry): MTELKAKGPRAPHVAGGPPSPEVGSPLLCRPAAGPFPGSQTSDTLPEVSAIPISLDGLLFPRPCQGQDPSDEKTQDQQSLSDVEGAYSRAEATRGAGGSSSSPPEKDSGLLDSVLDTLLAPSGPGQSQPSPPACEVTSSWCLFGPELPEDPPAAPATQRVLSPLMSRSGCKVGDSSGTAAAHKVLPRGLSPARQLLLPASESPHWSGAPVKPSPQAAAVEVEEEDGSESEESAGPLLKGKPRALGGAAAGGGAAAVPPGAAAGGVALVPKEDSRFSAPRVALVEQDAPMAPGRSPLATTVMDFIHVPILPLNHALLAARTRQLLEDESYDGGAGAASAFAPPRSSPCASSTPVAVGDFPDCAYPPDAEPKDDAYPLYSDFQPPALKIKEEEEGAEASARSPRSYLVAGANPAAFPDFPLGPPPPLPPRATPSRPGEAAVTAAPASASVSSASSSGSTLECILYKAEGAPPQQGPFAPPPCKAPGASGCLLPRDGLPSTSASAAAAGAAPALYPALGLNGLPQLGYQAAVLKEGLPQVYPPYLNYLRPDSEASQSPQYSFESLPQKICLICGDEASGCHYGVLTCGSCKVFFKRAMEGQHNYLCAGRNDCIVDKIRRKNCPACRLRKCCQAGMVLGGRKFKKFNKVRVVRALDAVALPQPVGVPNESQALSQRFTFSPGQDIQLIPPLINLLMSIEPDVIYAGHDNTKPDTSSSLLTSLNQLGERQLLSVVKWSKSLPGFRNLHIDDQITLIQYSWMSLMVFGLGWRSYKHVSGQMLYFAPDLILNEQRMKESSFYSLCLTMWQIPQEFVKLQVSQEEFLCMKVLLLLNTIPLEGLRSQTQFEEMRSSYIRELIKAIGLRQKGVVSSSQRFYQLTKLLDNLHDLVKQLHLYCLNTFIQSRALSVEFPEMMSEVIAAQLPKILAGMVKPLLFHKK

[2] = molecular target: 5-hydroxytryptamine receptor 2A (Homo sapiens, UniProt P28223); format: functional, cell-based
5-hydroxytryptamine receptor 2A, sequence (P28223 whole entry): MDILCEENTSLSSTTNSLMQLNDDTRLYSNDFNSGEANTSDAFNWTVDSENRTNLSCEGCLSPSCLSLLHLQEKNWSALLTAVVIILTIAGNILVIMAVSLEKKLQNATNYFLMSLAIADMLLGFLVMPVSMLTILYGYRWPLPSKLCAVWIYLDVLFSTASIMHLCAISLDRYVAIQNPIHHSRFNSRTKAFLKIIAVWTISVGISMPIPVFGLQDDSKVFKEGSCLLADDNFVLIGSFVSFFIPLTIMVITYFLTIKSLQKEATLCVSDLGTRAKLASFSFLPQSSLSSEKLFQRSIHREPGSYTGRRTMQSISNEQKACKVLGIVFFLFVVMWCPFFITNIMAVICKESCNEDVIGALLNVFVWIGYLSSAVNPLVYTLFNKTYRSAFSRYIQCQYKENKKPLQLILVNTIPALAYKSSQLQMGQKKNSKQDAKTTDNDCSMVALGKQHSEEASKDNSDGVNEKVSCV

D(1A) dopamine receptor = D(1A) dopamine receptor (Homo sapiens, UniProt P21728); format: functional, cell-based
D(1A) dopamine receptor, sequence (P21728 whole entry): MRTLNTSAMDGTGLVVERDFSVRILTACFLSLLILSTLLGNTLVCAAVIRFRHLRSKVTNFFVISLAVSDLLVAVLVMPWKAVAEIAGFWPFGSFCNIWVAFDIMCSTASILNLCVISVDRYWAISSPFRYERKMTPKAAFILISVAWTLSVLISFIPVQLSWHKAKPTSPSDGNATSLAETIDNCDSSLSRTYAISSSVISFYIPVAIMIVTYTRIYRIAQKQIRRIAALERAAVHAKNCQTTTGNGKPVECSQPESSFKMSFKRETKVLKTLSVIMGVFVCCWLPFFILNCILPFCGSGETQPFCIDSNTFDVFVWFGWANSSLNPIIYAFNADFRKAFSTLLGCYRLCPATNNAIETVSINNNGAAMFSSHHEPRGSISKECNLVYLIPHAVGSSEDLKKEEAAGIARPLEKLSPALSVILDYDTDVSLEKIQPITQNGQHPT

[3] = molecular target: Gamma-aminobutyric acid receptor subunit alpha-1 (Rattus norvegicus, UniProt P62813)
Gamma-aminobutyric acid receptor subunit alpha-1, sequence (P62813 whole entry): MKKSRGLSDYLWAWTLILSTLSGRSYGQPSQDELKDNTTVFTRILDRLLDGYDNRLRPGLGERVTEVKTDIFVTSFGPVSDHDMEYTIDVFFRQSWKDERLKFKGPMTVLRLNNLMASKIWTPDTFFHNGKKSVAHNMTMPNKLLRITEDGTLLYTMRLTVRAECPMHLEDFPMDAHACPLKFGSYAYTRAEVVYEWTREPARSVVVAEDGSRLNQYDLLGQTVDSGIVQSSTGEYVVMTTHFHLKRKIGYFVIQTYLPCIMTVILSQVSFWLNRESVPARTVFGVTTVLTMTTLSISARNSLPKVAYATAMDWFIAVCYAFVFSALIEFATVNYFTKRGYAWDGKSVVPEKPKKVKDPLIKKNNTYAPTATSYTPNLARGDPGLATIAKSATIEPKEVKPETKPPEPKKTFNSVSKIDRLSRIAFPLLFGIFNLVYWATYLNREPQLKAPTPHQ

[4] = molecular target: Beta-2 adrenergic receptor (Homo sapiens, UniProt P07550); format: functional, cell-based
Beta-2 adrenergic receptor, sequence (P07550 whole entry): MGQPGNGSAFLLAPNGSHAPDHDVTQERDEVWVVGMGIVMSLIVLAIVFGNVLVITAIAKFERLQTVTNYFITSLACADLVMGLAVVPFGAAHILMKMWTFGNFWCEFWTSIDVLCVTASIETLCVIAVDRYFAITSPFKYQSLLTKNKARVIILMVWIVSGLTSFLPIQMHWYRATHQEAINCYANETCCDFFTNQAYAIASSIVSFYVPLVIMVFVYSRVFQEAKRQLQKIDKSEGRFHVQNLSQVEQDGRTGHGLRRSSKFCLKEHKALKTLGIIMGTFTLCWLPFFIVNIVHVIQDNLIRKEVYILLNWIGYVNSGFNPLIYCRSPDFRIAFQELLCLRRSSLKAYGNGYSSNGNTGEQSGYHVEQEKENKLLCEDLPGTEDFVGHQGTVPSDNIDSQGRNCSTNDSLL

[5] = molecular target: 3',5'-cyclic-AMP phosphodiesterase 4A (Homo sapiens, UniProt P27815); format: functional
[6] = molecular target: T2, 5-hydroxytryptamine receptor 1A (Homo sapiens, UniProt P08908)
T2 sequence (P08908 whole entry): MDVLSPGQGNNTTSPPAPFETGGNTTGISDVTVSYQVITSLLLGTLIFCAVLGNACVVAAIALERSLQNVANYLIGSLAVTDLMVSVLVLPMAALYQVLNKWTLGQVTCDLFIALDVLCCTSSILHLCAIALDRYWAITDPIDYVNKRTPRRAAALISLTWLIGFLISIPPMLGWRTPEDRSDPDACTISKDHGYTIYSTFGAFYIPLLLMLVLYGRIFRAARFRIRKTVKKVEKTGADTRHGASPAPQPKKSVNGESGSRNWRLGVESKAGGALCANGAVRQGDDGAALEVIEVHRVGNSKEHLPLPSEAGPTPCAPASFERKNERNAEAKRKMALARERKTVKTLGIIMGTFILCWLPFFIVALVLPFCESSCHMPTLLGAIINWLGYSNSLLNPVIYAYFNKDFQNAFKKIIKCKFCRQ

[7] = molecular target: Sodium-dependent dopamine transporter (Homo sapiens, UniProt Q01959)
Sodium-dependent dopamine transporter, sequence (Q01959 whole entry): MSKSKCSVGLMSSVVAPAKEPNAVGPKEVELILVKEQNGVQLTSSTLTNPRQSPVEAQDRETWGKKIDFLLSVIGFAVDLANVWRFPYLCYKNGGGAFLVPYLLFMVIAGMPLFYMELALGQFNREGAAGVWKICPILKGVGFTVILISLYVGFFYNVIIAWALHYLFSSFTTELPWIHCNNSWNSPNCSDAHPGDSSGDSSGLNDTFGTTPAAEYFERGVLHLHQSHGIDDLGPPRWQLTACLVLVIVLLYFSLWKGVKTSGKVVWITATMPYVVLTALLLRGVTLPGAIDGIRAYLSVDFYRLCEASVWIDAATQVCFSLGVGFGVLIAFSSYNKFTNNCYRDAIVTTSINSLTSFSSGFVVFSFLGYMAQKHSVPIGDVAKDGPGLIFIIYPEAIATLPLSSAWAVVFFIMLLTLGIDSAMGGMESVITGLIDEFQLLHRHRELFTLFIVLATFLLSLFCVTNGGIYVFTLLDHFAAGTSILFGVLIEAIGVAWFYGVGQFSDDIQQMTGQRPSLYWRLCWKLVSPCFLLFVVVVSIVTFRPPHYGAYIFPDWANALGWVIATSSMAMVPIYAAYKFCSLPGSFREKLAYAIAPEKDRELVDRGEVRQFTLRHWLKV

Prothrombin = Prothrombin (Homo sapiens, UniProt P00734); format: functional
[8] = molecular target: T3, Alpha-1A adrenergic receptor (Homo sapiens, UniProt P35348); format: functional, cell-based
T3 sequence (P35348 whole entry): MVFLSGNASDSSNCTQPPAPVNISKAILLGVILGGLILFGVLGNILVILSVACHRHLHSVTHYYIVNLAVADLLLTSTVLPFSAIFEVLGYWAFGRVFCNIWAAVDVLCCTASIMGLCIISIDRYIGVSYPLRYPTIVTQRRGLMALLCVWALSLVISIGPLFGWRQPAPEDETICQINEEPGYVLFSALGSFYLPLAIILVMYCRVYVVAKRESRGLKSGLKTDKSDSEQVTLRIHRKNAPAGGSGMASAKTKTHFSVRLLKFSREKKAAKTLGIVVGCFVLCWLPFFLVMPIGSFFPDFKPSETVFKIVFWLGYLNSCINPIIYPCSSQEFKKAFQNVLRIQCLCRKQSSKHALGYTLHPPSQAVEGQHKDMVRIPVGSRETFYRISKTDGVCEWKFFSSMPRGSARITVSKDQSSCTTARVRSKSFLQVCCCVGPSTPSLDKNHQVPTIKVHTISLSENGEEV
Note: assay procedure not described here.

Cannabinoid receptor 1, sequence (P21554 whole entry): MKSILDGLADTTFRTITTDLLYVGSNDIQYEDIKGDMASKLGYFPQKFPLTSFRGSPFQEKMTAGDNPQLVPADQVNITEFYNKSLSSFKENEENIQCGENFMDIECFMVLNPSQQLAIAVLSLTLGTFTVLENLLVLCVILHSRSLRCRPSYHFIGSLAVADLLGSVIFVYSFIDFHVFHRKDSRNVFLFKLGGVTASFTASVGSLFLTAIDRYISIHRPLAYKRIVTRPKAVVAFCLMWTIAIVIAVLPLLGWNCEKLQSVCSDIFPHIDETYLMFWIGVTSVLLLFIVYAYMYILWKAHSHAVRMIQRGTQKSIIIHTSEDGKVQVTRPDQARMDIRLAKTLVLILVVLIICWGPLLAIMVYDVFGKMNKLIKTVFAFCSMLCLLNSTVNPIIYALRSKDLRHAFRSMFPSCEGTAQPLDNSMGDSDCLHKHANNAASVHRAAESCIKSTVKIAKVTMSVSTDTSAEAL
Vasopressin V1a receptor, sequence (P37288 whole entry): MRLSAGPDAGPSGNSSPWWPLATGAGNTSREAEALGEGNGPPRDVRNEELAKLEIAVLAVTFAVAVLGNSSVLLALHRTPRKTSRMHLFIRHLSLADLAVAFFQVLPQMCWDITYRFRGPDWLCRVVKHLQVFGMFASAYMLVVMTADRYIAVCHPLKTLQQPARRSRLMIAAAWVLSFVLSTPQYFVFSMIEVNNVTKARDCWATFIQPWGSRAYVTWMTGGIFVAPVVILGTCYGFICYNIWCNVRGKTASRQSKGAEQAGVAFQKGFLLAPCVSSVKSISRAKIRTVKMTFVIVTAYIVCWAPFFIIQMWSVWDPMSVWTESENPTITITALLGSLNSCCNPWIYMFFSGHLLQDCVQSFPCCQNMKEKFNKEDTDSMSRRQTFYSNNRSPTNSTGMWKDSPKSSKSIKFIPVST
Mu-type opioid receptor, sequence (P35372 whole entry): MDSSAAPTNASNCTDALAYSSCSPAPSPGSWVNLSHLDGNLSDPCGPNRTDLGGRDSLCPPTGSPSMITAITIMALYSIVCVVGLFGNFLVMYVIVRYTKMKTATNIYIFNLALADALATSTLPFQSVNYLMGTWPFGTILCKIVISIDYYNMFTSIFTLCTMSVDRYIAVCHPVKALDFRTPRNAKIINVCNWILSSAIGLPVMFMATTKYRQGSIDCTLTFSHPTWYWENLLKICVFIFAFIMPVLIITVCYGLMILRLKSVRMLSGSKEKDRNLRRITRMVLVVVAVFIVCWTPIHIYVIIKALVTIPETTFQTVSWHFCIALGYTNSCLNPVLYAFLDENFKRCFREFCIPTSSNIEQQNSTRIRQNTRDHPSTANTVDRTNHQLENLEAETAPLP
Muscarinic acetylcholine receptor M3, sequence (P20309 whole entry): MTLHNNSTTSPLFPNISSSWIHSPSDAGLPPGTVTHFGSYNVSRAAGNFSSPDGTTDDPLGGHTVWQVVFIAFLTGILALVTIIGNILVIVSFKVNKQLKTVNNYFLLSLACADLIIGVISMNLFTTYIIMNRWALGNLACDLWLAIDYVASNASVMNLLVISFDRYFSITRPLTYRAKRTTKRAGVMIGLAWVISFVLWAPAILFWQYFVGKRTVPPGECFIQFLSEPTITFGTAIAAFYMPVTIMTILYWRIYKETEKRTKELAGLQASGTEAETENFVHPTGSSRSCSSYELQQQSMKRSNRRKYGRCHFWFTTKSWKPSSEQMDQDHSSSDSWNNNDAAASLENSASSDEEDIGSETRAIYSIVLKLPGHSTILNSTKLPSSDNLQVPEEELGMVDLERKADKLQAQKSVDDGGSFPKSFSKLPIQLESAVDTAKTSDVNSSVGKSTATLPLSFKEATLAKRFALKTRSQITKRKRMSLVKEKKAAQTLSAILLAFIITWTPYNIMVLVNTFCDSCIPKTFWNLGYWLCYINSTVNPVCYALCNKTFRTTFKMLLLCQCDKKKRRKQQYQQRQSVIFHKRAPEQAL

Structure (SMILES) | AC50 (Mu-type opioid receptor) [µM] | AC50 (Vasopressin V1a receptor) [µM] | AC50 [1] [µM] | AC50 (Cannabinoid receptor 1) [µM] | AC50 (Progesterone receptor) [µM] | AC50 [2] [µM] | AC50 (D(1A) dopamine receptor) [µM] | AC50 [3] [µM] | AC50 [4] [µM] | AC50 [5] [µM] | AC50 [6] [µM] | AC50 [7] [µM] | AC50 (Prothrombin) [µM] | AC50 [8] [µM]
Nc1ncn([C@H]2C[C@H](O)[C@@H](CO)O2)c(=O)n1 [DECITABINE] | > 30 | > 30 | > 30 | > 30 | > 30 | > 30 | > 30 | > 30 | – | – | – | – | – | –
CCOC(=O)C1=C[C@]2(CC)CCCN3CCc4c(n1c1ccccc41)[C@@H]32 [VINPOCETINE] | > 30 | > 30 | > 30 | – | > 30 | > 30 | > 30 | > 30 | > 30 | – | – | – | – | –
CC12CC3CC(C)(C1)CC(N)(C3)C2 [MEMANTINE] | – | > 30 | > 30 | > 10 | – | – | > 10 | > 10 | > 30 | – | – | – | – | –
CC(C)COCC(CN(Cc1ccccc1)c1ccccc1)N1CCCC1 (stereo not given) [BEPRIDIL] | 17 | > 30 | 17 | 10 | > 30 | > 30 | > 30 | – | – | – | – | – | – | –
CCC(C)C(CC)C(N)=O (stereo not given) [VALNOCTAMIDE] | > 30 | > 30 | > 30 | – | > 30 | > 30 | > 30 | > 30 | > 30 | – | – | – | – | –
CCOC(=O)C1=C(C)NC(C)=C(C(=O)OC)C1c1cccc([N+](=O)[O-])c1 (stereo not given) [NITRENDIPINE] | – | > 30 | – | > 10 | – | – | > 30 | > 10 | > 30 | – | – | – | – | –
CNC1=Nc2ccc(Cl)cc2C(c2ccccc2)=[N+]([O-])C1 [CHLORDIAZEPOXIDE] | – | – | – | > 10 | – | – | > 30 | > 10 | > 30 | – | – | – | – | –
C/N=C(\NC)NCc1ccccc1 [BETHANIDINE] | > 30 | > 30 | > 30 | – | > 30 | > 30 | > 30 | – | > 30 | – | – | – | – | –
Cc1cc(C(C)(C)C)cc(C)c1CC1=NCCN1 [XYLOMETAZOLINE] | > 30 | > 30 | 10 | – | > 30 | – | > 30 | > 30 | > 30 | – | – | – | – | –
CC1OC2(CS1)CN1CCC2CC1 (stereo not given) [CEVIMELINE] | > 30 | > 10 | > 30 | > 10 | > 10 | > 10 | > 30 | > 10 | – | – | – | – | – | –
Oc1ccc2c(c1)CC[C@H](c1ccccc1)[C@@H]2c1ccc(OCCN2CCCC2)cc1 [LASOFOXIFENE] | > 30 | > 30 | 11 | – | > 10 | 12 | > 30 | > 30 | > 30 | – | – | – | – | –
Clc1ccc(C(Cn2ccnc2)OCc2ccsc2Cl)c(Cl)c1 (stereo not given) [TIOCONAZOLE] | > 30 | > 30 | 26 | > 30 | 10.3 | > 30 | > 30 | > 30 | – | – | – | – | – | –
CCCC(CCC)C(N)=O [VALPROMIDE] | – | – | > 30 | > 10 | – | – | > 10 | > 10 | > 30 | – | – | – | – | –
CCC(C)C1(CC)C(=O)NC(=O)NC1=O (stereo not given) [BUTABARBITAL] | > 30 | > 30 | – | – | > 30 | > 30 | > 30 | – | > 30 | – | – | – | – | –
CC(C(=O)O)c1ccc(CC2CCCC2=O)cc1 (stereo not given) [LOXOPROFEN] | > 30 | – | – | – | – | – | > 30 | > 30 | > 30 | – | – | – | – | –
CC(=O)N[C@@H](CS)C(=O)O [ACETYLCYSTEINE] | > 30 | > 30 | > 30 | – | > 30 | > 30 | > 30 | > 30 | > 30 | – | – | – | – | –
CN1CCN(C2=Nc3ccccc3Oc3ccc(Cl)cc32)CC1 [LOXAPINE] | > 30 | > 10 | – | > 10 | – | – | > 10 | > 10 | > 30 | > 30 | 3.95 | 23.3 | > 30 | 0.0734
CCCCC(=O)O[C@]1(C(=O)CO)[C@@H](C)C[C@H]2[C@@H]3CCC4=CC(=O)C=C[C@]4(C)[C@@]3(F)[C@@H](O)C[C@@]21C [BETAMETHASONE VALERATE] | – | – | > 30 | > 10 | – | – | > 10 | > 10 | > 30 | – | – | – | – | –
C[C@]12CC[C@@H]3c4ccc(O)cc4C[C@@H](CCCCCCCCC[S+]([O-])CCCC(F)(F)C(F)(F)F)[C@H]3[C@@H]1CC[C@@H]2O (stereo not given in full) [FULVESTRANT] | > 30 | > 30 | > 30 | – | 3.6 | > 30 | > 30 | > 30 | > 30 | – | – | – | – | –
CC(CCc1ccc(O)cc1)NCCc1ccc(O)c(O)c1 (stereo not given) [DOBUTAMINE] | > 30 | > 30 | – | > 30 | > 30 | – | 13 | > 30 | > 30 | – | – | – | – | –
O=[N+]([O-])c1ccc(O)c2ncccc12 [NITROXOLINE] | – | – | 7.6 | – | – | > 30 | > 30 | > 30 | > 30 | > 30 | > 30 | > 30 | > 30 | –
CN(C)CCCNc1c2ccccc2nc2cccc([N+](=O)[O-])c12 [NITRACRINE] | > 30 | > 30 | 19 | – | > 30 | – | – | > 30 | > 30 | – | – | – | – | –
CN1CCC(=C2c3ccccc3CCc3cccnc32)CC1 [AZATADINE] | – | > 30 | > 30 | > 10 | – | – | > 10 | > 10 | > 30 | – | – | – | – | –
CC(C)[C@H](N)C(=O)OCC(CO)OCn1cnc2c(=O)nc(N)[nH]c21 (stereo not given in full) [VALGANCICLOVIR] | > 30 | > 30 | > 30 | > 30 | > 30 | > 30 | > 30 | > 30 | – | – | – | – | – | –
C=CCNc1nc(NCC=C)nc(N2CCN(C(c3ccc(F)cc3)c3ccc(F)cc3)CC2)n1 [ALMITRINE] | > 30 | > 30 | > 30 | > 30 | > 30 | > 30 | > 30 | > 30 | – | – | – | – | – | –
CC(N)C(O)c1ccccc1 (stereo not given) [PHENYLPROPANOLAMINE] | – | > 30 | – | > 10 | – | – | > 10 | > 10 | > 30 | – | – | – | – | –
